Several values for one entry are separate records, joined by “and”; a condition that tells them apart may be missing. Identical values can stand only once.
Key:
Type in all cases: cell-based
GPR139 [1] = molecular target: T1, GPR139 (Homo sapiens, UniProt Q6DWJ6); assay: Ca2+ mobilization assay, antagonist mode (EC80 800 nM Lundbeck Cmp 1a after 20 min preincubation), GPR139-CHOk1
T1 sequence (Q6DWJ6 1-353): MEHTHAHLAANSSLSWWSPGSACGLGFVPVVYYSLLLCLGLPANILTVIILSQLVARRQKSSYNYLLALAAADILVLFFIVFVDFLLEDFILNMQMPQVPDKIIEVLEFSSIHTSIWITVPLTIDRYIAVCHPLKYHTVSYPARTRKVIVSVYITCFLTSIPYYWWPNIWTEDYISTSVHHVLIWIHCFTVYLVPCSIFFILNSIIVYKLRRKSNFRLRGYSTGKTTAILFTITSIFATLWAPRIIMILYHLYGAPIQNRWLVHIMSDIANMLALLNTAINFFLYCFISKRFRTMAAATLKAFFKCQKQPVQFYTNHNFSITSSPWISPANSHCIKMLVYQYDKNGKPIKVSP
How it was run: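 Antagonist mode: 800 nM (EC80) reference agonist Lundbeck Cmp 1a added following 20 min pre-incubation with 10 µM compound. GPR139-CHOk1 cells, Fluo-4 dye, probenecid-containing HEPES buffer pH 7.4; intracellular Ca2+ measured at 37 °C (ex 485, em 525 nm).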

GPR139 [2] = molecular target: T1, GPR139; assay: Ca2+ mobilization assay, agonist mode, stable GPR139-CHOk1 cell line; details: for EC50 / Emax: Supplementary Table 2, mean ± SEM; for EC50: read-out: pEC50 Ca2+ (converted); for Emax: normalized to Lundbeck Cmp 1a, read-out: Emax (%) Ca2+
How it was run: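 Agonist activity of compounds is assessed in stably transfected CHO-K1 cells using the calcium dye Fluo-4 at 37 °C in HEPES-buffered HBSS (pH 7.4). Efficacy is expressed relative to the reference agonist Lundbeck Cmp 1a, set as 100%.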

[3] = molecular target: T2, human muscarinic acetylcholine M1 receptor (M1R) (Homo sapiens, UniProt P11229); assay: Ca2+ mobilization counter-screen in M1R-CHOk1 cells;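 note: 10 µM test compound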
T2 sequence (P11229 1-460): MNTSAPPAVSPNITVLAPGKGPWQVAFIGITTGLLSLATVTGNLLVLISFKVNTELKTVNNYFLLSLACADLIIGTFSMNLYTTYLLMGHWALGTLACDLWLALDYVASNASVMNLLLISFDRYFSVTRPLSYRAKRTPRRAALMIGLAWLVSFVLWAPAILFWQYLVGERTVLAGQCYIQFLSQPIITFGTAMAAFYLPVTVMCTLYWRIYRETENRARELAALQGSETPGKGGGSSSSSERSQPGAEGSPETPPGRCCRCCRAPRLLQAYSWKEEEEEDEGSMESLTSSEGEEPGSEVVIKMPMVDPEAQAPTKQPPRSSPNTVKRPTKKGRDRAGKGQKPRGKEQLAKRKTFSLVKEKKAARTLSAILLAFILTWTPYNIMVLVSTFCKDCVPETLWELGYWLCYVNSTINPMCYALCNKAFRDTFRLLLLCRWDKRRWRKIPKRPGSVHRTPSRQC
How it was run: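 Counter-screen used CHO-K1 cells stably carrying human M1R, Fluo-4 AM-loaded (2 µM, 1 h, 37 °C). Calcium signal measured at 485/525 nm after compound addition.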

[4] = individual replicates (Supplementary Figure 4)
[5] = Agonist mode, individual replicates (Supplementary Figure 4)
[6] = log [Compound] M = -4.5, individual replicate columns
[7] = log [Compound] M = -5.0, individual replicate columns
[8] = log [Compound] M = -5.5, individual replicate columns
[9] = log [Compound] M = -6.0, individual replicate columns
[10] = log [Compound] M = -6.5, individual replicate columns
[11] = log [Compound] M = -7.0, individual replicate columns
[12] = log [Compound] M = -7.5, individual replicate columns
[13] = log [Compound] M = -8.0, individual replicate columns
[14] = log [Compound] M = -8.5, individual replicate columns
[15] = log [Compound] M = -9.0, individual replicate columns
[16] = individual replicates (Supplementary Figure 5)

SMILES | Ca2+ signal (% of Cmp 1a) (GPR139 [1]; [4]) | Ca2+ signal (% of Cmp 1a) (GPR139 [2]; [5]) | EC50 (GPR139 [2]) | Emax (GPR139 [2]) | Ca2+ signal (% of Cmp 1a) (GPR139 [2]; [6]) | Ca2+ signal (% of Cmp 1a) (GPR139 [2]; [7]) | Ca2+ signal (% of Cmp 1a) (GPR139 [2]; [8]) | Ca2+ signal (% of Cmp 1a) (GPR139 [2]; [9]) | Ca2+ signal (% of Cmp 1a) (GPR139 [2]; [10]) | Ca2+ signal (% of Cmp 1a) (GPR139 [2]; [11]) | Ca2+ signal (% of Cmp 1a) (GPR139 [2]; [12]) | Ca2+ signal (% of Cmp 1a) (GPR139 [2]; [13]) | Ca2+ signal (% of Cmp 1a) (GPR139 [2]; [14]) | Ca2+ signal (% of Cmp 1a) (GPR139 [2]; [15]) | Ca2+ signal (% of Carbachol) [3, 16] | also measured
CCc1nc(-c2nc(CC(=O)NC(C)c3ccccc3)no2)co1 (stereo not drawn) [Compound 1.42, CCC1=NC(=CO1)C2=NC(CC(=O)NC(C)C=3C=CC=CC3)=NO2] | 24 % of Cmp 1a and -10 % of Cmp 1a and 49 % of Cmp 1a | 76 % of Cmp 1a and 54 % of Cmp 1a and 64 % of Cmp 1a | 2000 nM | 78 ± 3% | 65 % of Cmp 1a and 81 % of Cmp 1a and 83 % of Cmp 1a | 44 % of Cmp 1a and 85 % of Cmp 1a and 76 % of Cmp 1a | 31 % of Cmp 1a and 75 % of Cmp 1a and 78 % of Cmp 1a | 9 % of Cmp 1a and 29 % of Cmp 1a and 21 % of Cmp 1a | -11 % of Cmp 1a and 1.56 % of Cmp 1a and 5.36 % of Cmp 1a | -2.41 % of Cmp 1a and 0.181 % of Cmp 1a and -5 % of Cmp 1a | -4.35 % of Cmp 1a and 3.27 % of Cmp 1a and -5.39 % of Cmp 1a | 5 % of Cmp 1a and -2.46 % of Cmp 1a and -2 % of Cmp 1a | -3 % of Cmp 1a and -4 % of Cmp 1a and 0.00955 % of Cmp 1a | -3.77 % of Cmp 1a and 10 % of Cmp 1a and 3.66 % of Cmp 1a | -1.26 % of Carbachol and 0.364 % of Carbachol and 1.26 % of Carbachol | 
Cc1cc(-c2nc(CC(=O)NC(C)c3ccccc3)no2)ns1 (stereo not drawn) [Compound 1.43, CC(NC(=O)CC1=NOC(=N1)C=2C=C(C)SN2)C=3C=CC=CC3] | 4.33 % of Cmp 1a and 17 % of Cmp 1a and 5 % of Cmp 1a | 63 % of Cmp 1a and 81 % of Cmp 1a and 86 % of Cmp 1a | 1580 nM | 102 ± 7% | 114 % of Cmp 1a and 107 % of Cmp 1a and 84 % of Cmp 1a | 92 % of Cmp 1a and 86 % of Cmp 1a and 81 % of Cmp 1a | 82 % of Cmp 1a and 55 % of Cmp 1a and 100 % of Cmp 1a | 35 % of Cmp 1a and 11 % of Cmp 1a and 48 % of Cmp 1a | 14 % of Cmp 1a and -6.32 % of Cmp 1a and 5 % of Cmp 1a | -6 % of Cmp 1a and 6 % of Cmp 1a and -11 % of Cmp 1a | 0.152 % of Cmp 1a and 7 % of Cmp 1a and -5.32 % of Cmp 1a | 0.817 % of Cmp 1a and 5 % of Cmp 1a and 7 % of Cmp 1a | -1.79 % of Cmp 1a and -1.64 % of Cmp 1a and 0.136 % of Cmp 1a | 1.86 % of Cmp 1a and -3 % of Cmp 1a and -0.513 % of Cmp 1a | -0.351 % of Carbachol and 1.19 % of Carbachol and 1.15 % of Carbachol | fold decrease in potency relative to parent compound 1 (GPR139 [2]; Ca2+ mobilization EC50): 3- to 25 fold
COCC(NC(=O)NC(C)c1ccc(F)cc1F)c1ccccc1 (stereo not drawn) [Compound 6, COCC(NC(=O)NC(C)C=1C=CC(F)=CC1F)C=2C=CC=CC2] |  |  |  |  |  |  |  |  |  |  |  |  |  |  |  | Ca2+ signal (% of Cmp 1a) (GPR139 [1]; individual replicates (Supplementary Figure 1)): 39.4931 % of Cmp 1a and 54.2036 % of Cmp 1a and 45.3276 % of Cmp 1a; Ca2+ signal (% of Cmp 1a) (GPR139 [2]; 0.1 µM, individual replicates (Supplementary Figure 3)): -5.9 % of Cmp 1a and -10.9 % of Cmp 1a; Ca2+ signal (% of Cmp 1a) (GPR139 [2]; 1 µM, individual replicates (Supplementary Figure 3)): 3.9 % of Cmp 1a and 9.9 % of Cmp 1a; Ca2+ signal (% of Cmp 1a) (GPR139 [2]; 10 µM, individual replicates (Supplementary Figure 3)): 34.7 % of Cmp 1a and 32.7 % of Cmp 1a; activation of GPR139 at three concentrations (GPR139 [2]; 0.1, 1 and 10 µM, activity too low to reliably determine EC50): concentration-dependent activation of GPR139; Ca2+ signal (% of Cmp 1a) (GPR139 [2]; Agonist mode, individual replicates (Supplementary Figure 1)): 37 % of Cmp 1a and 42 % of Cmp 1a and 46 % of Cmp 1a; Ca2+ signal (% of Cmp 1a) (GPR139 [2]; primary screen, 10 µM compound, agonist mode, three columns = independent experiments): 37 % of Cmp 1a and 42 % of Cmp 1a and 46 % of Cmp 1a; Ca2+ signal (% of Carbachol) ([3]; individual replicates (Supplementary Figure 2)): -19 % of Carbachol and -0.753 % of Carbachol

Source: PMC12775434, “Ultra-large virtual screening unveils potent agonists of the neuromodulatory orphan receptor GPR139” (Nature Communications, 2025)
